Results from patent US9758495B2, “Heteroaryl acid morpholinone compounds as MDM2 inhibitors for the treatment of cancer” (AMGEN INC., priority 2013, dated 2017).

Biological target: GST-hMDM2 (aa 1-188) / biotinylated-p53 (aa 1-83) (Homo sapiens (Human), UniProt Q00987)
Test: Homogenous Time-Resolved Fluorescence Assay (HTRF2 assay), inhibition of HDM2-p53 interaction
Format: binding
Details: 0.2 nM GST-hMDM2 (1-188), 0.5 nM biotinylated-p53 (1-83), 0.18 nM SA-XLent, 100 mM KF
Method: Residues 1-83 of human p53 were expressed as an amino-terminal AviTag™-TrxA-6×His fusion protein (biotinylated p53) in E. coli. Each protein was purified from cell paste by affinity chromatography.
Specifically, 10 uL of GST-hMDM2 was incubated with 10 ul of diluted compound (various concentrations, serially diluted) in 10% DMSO for 20 minutes at room temperature. 20 uL of biotinylated-p53 was added to the GST-hMDM2+compound mixture, and then incubated at room temperature for 60 min. 10 uL of detection buffer consisting of SA-XLent, anti-GST cryptate antibody and KF was added to GST-hMDM2, biotinylated-p53 and compound reaction and left at room temperature to reach equilibrium for >4 hrs. The final concentration of DMSO in the reaction was 2%. Time-resolved fluorescence readings were measured on a microplate multilabel reader. Percentage of inhibition was calculated relative to nutlin-3.

GST-hMDM2 (aa 1-188) / biotinylated-p53 (aa 1-83), sequence (Q00987 1-188): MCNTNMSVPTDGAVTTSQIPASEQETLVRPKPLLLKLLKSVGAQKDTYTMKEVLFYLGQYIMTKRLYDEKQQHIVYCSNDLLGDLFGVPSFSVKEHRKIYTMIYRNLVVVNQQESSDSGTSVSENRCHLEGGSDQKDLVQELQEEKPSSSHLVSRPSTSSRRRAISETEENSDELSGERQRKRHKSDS

IC50 [pM]	SMILES
230	CC(C)(C)S(=O)(=O)C[C@H](C1CC1)N1C(=O)[C@](C)(Cc2ccc(C(=O)O)c[n+]2[O-])O[C@H](c2cccc(Cl)c2)[C@H]1c1ccc(Cl)cc1 (single isomer, unassigned) [Example 3, 2-(((2S,5R,6R)-4-((S)-2-(tert-Butylsulfonyl)-1-cyclopropylethyl)-6-(3-chlorophenyl)-5-(4-chlorophenyl)-2-methyl-3-oxomorpholin-2-yl)methyl)-5-carboxypyridine 1-oxide or 2-(((2R,5R,6R)-4-((S)-2-(tert-Butylsulfonyl)-1-cyclopropylethyl)-6-(3-chlorophenyl)-5-(4-chlorophenyl)-2-methyl-3-oxomorpholin-2-yl)methyl)-5-carboxypyridine 1-oxide]
1850	CC(C)(C)S(=O)(=O)C[C@H](C1CC1)N1C(=O)[C@@](C)(Cc2ccc(C(=O)O)c[n+]2[O-])O[C@H](c2cccc(Cl)c2)[C@H]1c1ccc(Cl)cc1 (single isomer, unassigned) [Example 4, 2-(((2R,5R,6R)-4-((S)-2-(tert-butylsulfonyl)-1-cyclopropylethyl)-6-(3-chlorophenyl)-5-(4-chlorophenyl)-2-methyl-3-oxomorpholin-2-yl)methyl)-5-carboxypyridine 1-oxide or 2-(((2S,5R,6R)-4-((S)-2-(tert-butylsulfonyl)-1-cyclopropylethyl)-6-(3-chlorophenyl)-5-(4-chlorophenyl)-2-methyl-3-oxomorpholin-2-yl)methyl)-5-carboxypyridine 1-oxide]
121	CC(C)(C)S(=O)(=O)C[C@H](C1CC1)N1C(=O)[C@@](C)(Cc2ncc(C(=O)O)s2)O[C@H](c2cccc(Cl)c2)[C@H]1c1ccc(Cl)c(F)c1 (single isomer, unassigned) [Example 5, 2-(((2R,5R,6R)-4-((S)-2-(tert-Butylsulfonyl)-1-cyclopropylethyl)-5-(4-chloro-3-fluorophenyl)-6-(3-chlorophenyl)-2-methyl-3-oxomorpholin-2-yl)methyl)thiazole-5-carboxylic acid or 2-(((2S,5R,6R)-4-((S)-2-(tert-butylsulfonyl)-1-cyclopropylethyl)-5-(4-chloro-3-fluorophenyl)-6-(3-chlorophenyl)-2-methyl-3-oxomorpholin-2-yl)methyl)thiazole-5-carboxylic acid]

SMILES	IC50 [pM]
CC(C)(C)S(=O)(=O)C[C@H](C1CC1)N1C(=O)[C@@](C)(Cc2ccc(C(=O)O)cn2)O[C@H](c2cccc(Cl)c2)[C@H]1c1ccc(Cl)c(F)c1 (single isomer, unassigned) [Example 6, 6-(((2R,5R,6R)-4-((S)-2-(tert-Butylsulfonyl)-1-cyclopropylethyl)-5-(4-chloro-3-fluorophenyl)-6-(3-chlorophenyl)-2-methyl-3-oxomorpholin-2-yl)methyl)nicotinic acid or 6-(((2S,5R,6R)-4-((S)-2-(tert-butylsulfonyl)-1-cyclopropylethyl)-5-(4-chloro-3-fluorophenyl)-6-(3-chlorophenyl)-2-methyl-3-oxomorpholin-2-yl)methyl)nicotinic acid]	110
CC(C)(C)S(=O)(=O)C[C@H](C1CC1)N1C(=O)[C@@](C)(Cc2ccc(C(=O)O)cn2)O[C@H](c2cccc(Cl)c2)[C@H]1c1ccc(Cl)c(F)c1 (single isomer, unassigned) [Example 7, 6-(((2R,5R,6R)-4-((S)-2-(tert-butylsulfonyl)-1-cyclopropylethyl)-5-(4-chloro-3-fluorophenyl)-6-(3-chlorophenyl)-2-methyl-3-oxomorpholin-2-yl)methyl)nicotinic acid or 6-(((2S,5R,6R)-4-((S)-2-(tert-butylsulfonyl)-1-cyclopropylethyl)-5-(4-chloro-3-fluorophenyl)-6-(3-chlorophenyl)-2-methyl-3-oxomorpholin-2-yl)methyl)nicotinic acid]	< 100
